Results published in patent publication US20230146455A1, “TREATMENT OF INFLAMMATORY DISEASES WITH PEPTIDES AND PHARMACEUTICAL COMPOSITIONS” (Yuyu Pharma, Inc., priority 2020, published 2023).
Several values for one entry are separate records, joined by “and”; a condition that tells them apart may be missing. Equal values may be shown once. Where a SMILES comes first, the peptide text is derived from it. [ ]: non-standard residue; d: D form. Hyp = O=C(O)[C@@H]1C[C@@H](O)CN1

Tested on: IL-17A
Test: Example 9 Luminex, LPS hPBMCs: IL-17A
Assay type: cell-based, human
Protocol: Treatment Human PBMCs were pretreated with YY-101, YDE-011 and YDE-043 or reference compound; Xiidra® at various concentration (ranging from 1 nM to 100 uM) for 2 h before stimulation. An equal volume of 0.5% DMSO was used as a vehicle control. Then, the cells were treated with LPS at 5 ug/ml. The supernatants from treated cells were harvested at 24 h and placed in a 96 well for Luminex cytokine & chemokine profiling using a Luminex 200 multiplex assay (Luminex; R&D system, USA).
The main study arm with triplicate wells per group in a 24-well plate: • 1. Blank • 2. PBMC: 0.5% DMSO • 3. PBMC+LPS (5 ug/ml) • 4. PBMC+YY-101 100 uM • 5. PBMC+YY-101 10 uM • 6. PBMC+YY-101 1 uM • 7. PBMC+YY-101 0.1 uM • 8. PBMC+YY-101 0.01 uM • 9. PBMC+LPS (5 ug/ml)+Xiidra®100 uM • 10. PBMC+LPS (5 ug/ml)+Xiidra® 10 uM • 11. PBMC+LPS (5 ug/ml)+Xiidra® 1 uM • 12. PBMC+LPS (5 ug/ml)+Xiidra®0.1 uM • 13. PBMC+LPS (5 ug/ml)+Xiidra®0.01 uM • 14. PBMC+LPS (5 ug/ml)+Xiidra®0.001 uM • 15. PBMC+LPS (5 ug/ml)+YY-101 100 uM • 16. PBMC+LPS (5 ug/ml)+YY-101 10 uM • 17. PBMC+LPS (5 ug/ml)+YY-101 1 uM • 18. PBMC+LPS (5 ug/ml)+YY-101 0.1 uM • 19. PBMC+LPS (5 ug/ml)+YY-101 0.01 uM • 20. PBMC+LPS (5 ug/ml)+YY-101 0.001 uM • 21. PBMC+LPS (5 ug/ml)+YDE-011 100 uM • 22. PBMC+LPS (5 ug/ml)+YDE-011 10 uM • 23. PBMC+LPS (5 ug/ml)+YDE-011 1 uM • 24. PBMC+LPS (5 ug/ml)+YDE-011 0.1 uM • 25. PBMC+LPS (5 ug/ml)+YDE-011 0.01 uM • 26. PBMC+LPS (5 ug/ml)+YDE-011 0.001 uM • 27. PBMC+LPS (5 ug/ml)+YDE-043 100 uM • 28. PBMC+LPS (5 ug/ml)+YDE-043 10 uM • 29. PBMC+LPS (5 ug/ml)+YDE-043 1 uM • 30. PBMC+LPS (5 ug/ml)+YDE-043 0.1 uM • 31. PBMC+LPS (5 ug/ml)+YDE-043 0.01 uM • 32. PBMC+LPS (5 ug/ml)+YDE-043 0.001 uM
Multiplex assay was used to measure 30 cytokines and chemokines. The 1:2, 1:10 and 1:200 diluted cell supernatant and serial dilution of the standard were dispensed into a 96 well plate at 50 ul/well. Then, the pre-mixed cocktail of antibody-coated magnetic beads was dispensed at 50 ul/well and incubated at room temperature for 2 h in a horizontal orbital microplate shaker at 800±500 rpm. The beads were washed using a magnetic device to prevent loss. The biotin-antibody was dispensed in 50 ul of each well and incubated at room temperature for 1 h in a shaker at 800±500 rpm. After washing, streptavidin-PE was added at 50 ul/well and incubated at room temperature for 30 min in a shaker under the same conditions. Finally, after washing, wash buffer (100 ul/well) was added to the plate and incubated in a shaker for 2 min. The Luminex™ 200 setting were set according to the manufacturer's protocol. The data was calculated with a standard five-parameter logistic nonlinear regression analysis of the data (xPonent software 4.2, USA). The levels of cytokine/chemokine are normalized to the live cell counts (1×10^5 cells/mL) and presented as concentrations per mL (pg/mL or ng/mL).

[1] = PBMC + LPS(5 ug/ml) + test article 0.001 uM, Mean
[2] = PBMC + LPS(5 ug/ml) + test article 0.001 uM, single replicates (1st, 2nd, 3rd)
[3] = PBMC + LPS(5 ug/ml) + test article 0.01 uM, Mean
[4] = PBMC + LPS(5 ug/ml) + test article 0.01 uM, single replicates (1st, 2nd, 3rd)
[5] = PBMC + LPS(5 ug/ml) + test article 0.1 uM, Mean
[6] = PBMC + LPS(5 ug/ml) + test article 0.1 uM, single replicates (1st, 2nd, 3rd)
[7] = PBMC + LPS(5 ug/ml) + test article 1 uM, Mean
[8] = PBMC + LPS(5 ug/ml) + test article 1 uM, single replicates (1st, 2nd, 3rd)
[9] = PBMC + LPS(5 ug/ml) + test article 10 uM, Mean
[10] = PBMC + LPS(5 ug/ml) + test article 10 uM, single replicates (1st, 2nd, 3rd)
[11] = PBMC + LPS(5 ug/ml) + test article 100 uM, Mean
[12] = PBMC + LPS(5 ug/ml) + test article 100 uM, single replicates (1st, 2nd, 3rd)

In the case of CC(C)C[C@H](NC(=O)CNC(=O)[C@H](CC(C)C)NC(=O)[C@H](CCC(N)=O)NC(=O)CNC(=O)[C@@H]1C[C@@H](O)CN1)C(=O)N[C@@H](C)C(=O)NCC(=O)N1CCC[C@H]1C(=O)N[C@@H](CCCCN)C(=O)O [YDE-011] (H-[Hyp]GQLGLAGPK-OH), the “Concentration, IL-17A” value [1] was 3.3 pg/mL, the “MFI, Bead name: IL-17A” value [1] was 1.8 and the “conc/live cell, IL-17A” value [1] was 0.6 pg/10^5. The “Concentration, IL-17A” value [2] was 4.3 pg/ml and 2.7 pg/ml (2×), the “MFI, Bead name: IL-17A” value [2] was 2.5 and 1.5 (2×) and the “conc/live cell, IL-17A” value [2] was 1.0 pg/10^5 and 0.5 pg/10^5 (2×). For the same molecule, the “Concentration, IL-17A” value [3] was 2.1 pg/mL, the “MFI, Bead name: IL-17A” value [3] was 1.2 and the “conc/live cell, IL-17A” value [3] was 0.4 pg/10^5. The “Concentration, IL-17A” value [4] was 1.0 pg/ml (2×) and 4.3 pg/ml, the “MFI, Bead name: IL-17A” value [4] was 0.5 (2×) and 2.5 and the “conc/live cell, IL-17A” value [4] was 0.2 pg/10^5 (2×) and 0.9 pg/10^5. For the same molecule, the “Concentration, IL-17A” value [5] was 1.6 pg/mL, the “MFI, Bead name: IL-17A” value [5] was 0.8 and the “conc/live cell, IL-17A” value [5] was 0.3 pg/10^5. For the same molecule, the “Concentration, IL-17A” value [6] was 2.7 pg/ml and 1.0 pg/ml (2×), the “MFI, Bead name: IL-17A” value [6] was 1.5 and 0.5 (2×) and the “conc/live cell, IL-17A” value [6] was 0.4 pg/10^5 and 0.2 pg/10^5 (2×). The “Concentration, IL-17A” value [7] was 3.8 pg/mL, the “MFI, Bead name: IL-17A” value [7] was 2.2 and the “conc/live cell, IL-17A” value [7] was 0.8 pg/10^5. For the same molecule, the “Concentration, IL-17A” value [8] was 4.3 pg/ml (2×) and 2.7 pg/ml, the “MFI, Bead name: IL-17A” value [8] was 2.5 (2×) and 1.5 and the “conc/live cell, IL-17A” value [8] was 0.8 pg/10^5 and 0.9 pg/10^5 and 0.6 pg/10^5. For the same molecule, the “Concentration, IL-17A” value [9] was 2.7 pg/mL, the “MFI, Bead name: IL-17A” value [9] was 0.8 and the “conc/live cell, IL-17A” value [9] was 0.3 pg/10^5. For the same molecule, the “Concentration, IL-17A” value [10] was 2.7 pg/mL, the “MFI, Bead name: IL-17A” value [10] was 1.5 (2×) and −0.5 and the “conc/live cell, IL-17A” value [10] was 0.5 pg/10^5 (2×) and 0.0 pg/10^5. For the same molecule, the “Concentration, IL-17A” value [11] was 1.0 pg/mL, the “MFI, Bead name: IL-17A” value [11] was 0.2 and the “conc/live cell, IL-17A” value [11] was 0.1 pg/10^5. For the same molecule, the “Concentration, IL-17A” value [12] was 1.0 pg/mL, the “MFI, Bead name: IL-17A” value [12] was 0.5 (2×) and −0.5 and the “conc/live cell, IL-17A” value [12] was 0.2 pg/10^5 (2×) and 0.0 pg/10^5.
CC(C)C[C@H](NC(=O)[C@H](CCC(N)=O)NC(=O)CNC(=O)[C@@H]1C[C@@H](O)CN1)C(=O)NCC(=O)O [YDE-043] (H-[Hyp]GQLG-OH; N-terminus and C-terminus assumed) was tested, and the “Concentration, IL-17A” value [1] was 1.0 pg/mL, the “MFI, Bead name: IL-17A” value [1] was 0.2 and the “conc/live cell, IL-17A” value [1] was 0.2 pg/10^5. The “Concentration, IL-17A” value [2] was 1.0 pg/mL, the “MFI, Bead name: IL-17A” value [2] was 0.5 (2×) and −0.5 and the “conc/live cell, IL-17A” value [2] was 0.2 pg/10^5 (2×) and 0.0 pg/10^5. The “Concentration, IL-17A” value [3] was 1.0 pg/mL, the “MFI, Bead name: IL-17A” value [3] was 0.5 and the “conc/live cell, IL-17A” value [3] was 0.2 pg/10^5. The “Concentration, IL-17A” value [4] was 1.0 pg/mL, the “MFI, Bead name: IL-17A” value [4] was 0.5 and the “conc/live cell, IL-17A” value [4] was 0.2 pg/10^5. For the same molecule, the “Concentration, IL-17A” value [5] was 1.6 pg/mL, the “MFI, Bead name: IL-17A” value [5] was 0.8 and the “conc/live cell, IL-17A” value [5] was 0.3 pg/10^5. For the same molecule, the “Concentration, IL-17A” value [6] was 2.7 pg/ml and 1.0 pg/ml (2×), the “MFI, Bead name: IL-17A” value [6] was 1.5 and 0.5 (2×) and the “conc/live cell, IL-17A” value [6] was 0.5 pg/10^5 and 0.2 pg/10^5 (2×). The “Concentration, IL-17A” value [7] was 1.9 pg/mL, the “MFI, Bead name: IL-17A” value [7] was 0.5 and the “conc/live cell, IL-17A” value [7] was 0.2 pg/10^5. For the same molecule, the “Concentration, IL-17A” value [8] was 1.0 pg/mL and 2.7 pg/mL, the “MFI, Bead name: IL-17A” value [8] was 0.5 and −0.5 and 1.5 and the “conc/live cell, IL-17A” value [8] was 0.2 pg/10^5 and 0.0 pg/10^5 and 0.5 pg/10^5. The “Concentration, IL-17A” value [9] was 1.3 pg/mL, the “MFI, Bead name: IL-17A” value [9] was 0.7 and the “conc/live cell, IL-17A” value [9] was 0.2 pg/10^5. For the same molecule, the “Concentration, IL-17A” value [10] was 0.1 pg/mL and 2.7 pg/mL and 1.0 pg/mL, the “MFI, Bead name: IL-17A” value [10] was 0.0 and 1.5 and 0.5 and the “conc/live cell, IL-17A” value [10] was 0.0 pg/10^5 and 0.5 pg/10^5 and 0.2 pg/10^5. For the same molecule, the “MFI, Bead name: IL-17A” value [11] was −0.5, the “conc/live cell, IL-17A” value [11] was 0.0 pg/10^5 and the “MFI, Bead name: IL-17A” value [12] was −0.5. The “conc/live cell, IL-17A” value [12] was 0.0 pg/10^5.
